Species on record: Rattus norvegicus
Assay: Open TG-GATES - Regimen: Single
Format: toxicity, organism-based, Sprague-Dawley
Parameters: regimen Single, gender Male, age 6 weeks
Settings: in vivo, po, route gavage; for APTT / Bas / Eos / Fbg / Hb / Ht / Lym / MCHC / MCV / Mono / Neu / PT / Plat / RBC / Ret / WBC: tissue Blood; for KIDNEY_L / KIDNEY_R / KIDNEY_TOTAL: tissue Kidney; for LIVER: tissue Liver; for ALP / ALT / AST / BUN / CRE / Ca / Cl / DBIL / GLC / IP / K / LDH / Na / PL / RALB / TBIL / TC / TG / TP / gamma-GTP: tissue Plasma
[1] = 100 mg/kg, 3 h, dose level Middle
[2] = 100 mg/kg, 6 h, dose level Middle
[3] = 100 mg/kg, 9 h, dose level Middle
[4] = 100 mg/kg, 24 h, dose level Middle
[5] = 300 mg/kg, 3 h, dose level High
[6] = 300 mg/kg, 6 h, dose level High
[7] = 300 mg/kg, 9 h, dose level High
[8] = 300 mg/kg, 24 h, dose level High

CS(=O)(=O)Nc1ccc([N+](=O)[O-])cc1Oc1ccccc1 [NIMESULIDE]
TERMINAL_BW [1]: 203.6 g
APTT [1]: 16.7 s
Bas [1]: 0%
Eos [1]: 1.2%
Fbg [1]: 201.6 mg/dL
Hb [1]: 13.1 g/dL
Ht [1]: 38.3%
Lym [1]: 71.4%
MCHC [1]: 34.3%
MCV [1]: 65.8 fL
Mono [1]: 8.2%
Neu [1]: 19.2%
PT [1]: 12.2 s
Plat [1]: 110 x10_4/uL
RBC [1]: 582.2 x10_4/ul
Ret [1]: 11.3%
WBC [1]: 87.9 x10_2/uL
KIDNEY_L [1]: 0.9 g
KIDNEY_R [1]: 0.9 g
KIDNEY_TOTAL [1]: 1.8 g
LIVER [1]: 9.5 g
ALP [1]: 901.6 IU/L
ALT [1]: 36.2 IU/L
AST [1]: 66.6 IU/L
BUN [1]: 14 mg/dL
CRE [1]: 0.6 mg/dL
Ca [1]: 11 mg/dL
Cl [1]: 105.8 meq/L
DBIL [1]: 0.06 mg/dL
GLC [1]: 233.2 mg/dL
IP [1]: 9.6 mg/dL
K [1]: 5 meq/L
LDH [1]: 93.8 IU/L
Na [1]: 140.2 meq/L
PL [1]: 145.4 mg/dL
RALB [1]: 3.9 g/dL
TBIL [1]: 0.4 mg/dL
TC [1]: 85.2 mg/dL
TG [1]: 54.8 mg/dL
TP [1]: 5.2 g/dL
gamma-GTP [1]: 1 IU/L
TERMINAL_BW [2]: 202.6 g
APTT [2]: 18.2 s
Bas [2]: 0%
Eos [2]: 1%
Fbg [2]: 211.2 mg/dL
Hb [2]: 13.2 g/dL
Ht [2]: 39.2%
Lym [2]: 73.2%
MCHC [2]: 33.6%
MCV [2]: 65.7 fL
Mono [2]: 4.4%
Neu [2]: 21.8%
PT [2]: 12.4 s
Plat [2]: 119.2 x10_4/uL
RBC [2]: 596.6 x10_4/ul
Ret [2]: 9%
WBC [2]: 69.4 x10_2/uL
KIDNEY_L [2]: 0.9 g
KIDNEY_R [2]: 1 g
KIDNEY_TOTAL [2]: 1.9 g
LIVER [2]: 8.6 g
ALP [2]: 733.2 IU/L
ALT [2]: 36.4 IU/L
AST [2]: 67.2 IU/L
BUN [2]: 14.8 mg/dL
CRE [2]: 0.7 mg/dL
Ca [2]: 10.5 mg/dL
Cl [2]: 103.4 meq/L
DBIL [2]: 0.072 mg/dL
GLC [2]: 258 mg/dL
IP [2]: 10.4 mg/dL
K [2]: 4.3 meq/L
LDH [2]: 79.6 IU/L
Na [2]: 139.8 meq/L
PL [2]: 132.8 mg/dL
RALB [2]: 3.7 g/dL
TBIL [2]: 0.5 mg/dL
TC [2]: 79.8 mg/dL
TG [2]: 28 mg/dL
TP [2]: 5.3 g/dL
gamma-GTP [2]: 1.6 IU/L
TERMINAL_BW [3]: 194.5 g
APTT [3]: 19.5 s
Bas [3]: 0%
Eos [3]: 0.6%
Fbg [3]: 214.8 mg/dL
Hb [3]: 13.6 g/dL
Ht [3]: 40.6%
Lym [3]: 79.2%
MCHC [3]: 33.5%
MCV [3]: 65.2 fL
Mono [3]: 6%
Neu [3]: 14.4%
PT [3]: 12.5 s
Plat [3]: 117.1 x10_4/uL
RBC [3]: 621.8 x10_4/ul
Ret [3]: 11.2%
WBC [3]: 80.5 x10_2/uL
KIDNEY_L [3]: 0.9 g
KIDNEY_R [3]: 0.9 g
KIDNEY_TOTAL [3]: 1.8 g
LIVER [3]: 7.9 g
ALP [3]: 917.4 IU/L
ALT [3]: 32.8 IU/L
AST [3]: 62.4 IU/L
BUN [3]: 12.6 mg/dL
CRE [3]: 0.6 mg/dL
Ca [3]: 10.6 mg/dL
Cl [3]: 107.2 meq/L
DBIL [3]: 0.018 mg/dL
GLC [3]: 234 mg/dL
IP [3]: 9.5 mg/dL
K [3]: 5 meq/L
LDH [3]: 72 IU/L
Na [3]: 138.2 meq/L
PL [3]: 137.8 mg/dL
RALB [3]: 4 g/dL
TBIL [3]: 0.4 mg/dL
TC [3]: 77.8 mg/dL
TG [3]: 28.6 mg/dL
TP [3]: 5.4 g/dL
gamma-GTP [3]: 1 IU/L
TERMINAL_BW [4]: 205.9 g
APTT [4]: 17.2 s
Bas [4]: 0%
Eos [4]: 1%
Fbg [4]: 216.6 mg/dL
Hb [4]: 13.8 g/dL
Ht [4]: 40.7%
Lym [4]: 69%
MCHC [4]: 33.7%
MCV [4]: 64.1 fL
Mono [4]: 6.8%
Neu [4]: 23.4%
PT [4]: 12 s
Plat [4]: 116.2 x10_4/uL
RBC [4]: 636.2 x10_4/ul
Ret [4]: 10%
WBC [4]: 104.6 x10_2/uL
KIDNEY_L [4]: 0.9 g
KIDNEY_R [4]: 0.9 g
KIDNEY_TOTAL [4]: 1.9 g
LIVER [4]: 10.2 g
ALP [4]: 976.6 IU/L
ALT [4]: 37.2 IU/L
AST [4]: 66.8 IU/L
BUN [4]: 20.8 mg/dL
CRE [4]: 0.6 mg/dL
Ca [4]: 10.7 mg/dL
Cl [4]: 106.6 meq/L
DBIL [4]: 0.024 mg/dL
GLC [4]: 185.6 mg/dL
IP [4]: 6.6 mg/dL
K [4]: 4.9 meq/L
LDH [4]: 105.6 IU/L
Na [4]: 140.4 meq/L
PL [4]: 148 mg/dL
RALB [4]: 3.9 g/dL
TBIL [4]: 0.3 mg/dL
TC [4]: 81.6 mg/dL
TG [4]: 110.6 mg/dL
TP [4]: 5.4 g/dL
gamma-GTP [4]: 1.8 IU/L
TERMINAL_BW [5]: 200.7 g
APTT [5]: 21.2 s
Bas [5]: 0%
Eos [5]: 1.4%
Fbg [5]: 206.8 mg/dL
Hb [5]: 13 g/dL
Ht [5]: 38.1%
Lym [5]: 69.4%
MCHC [5]: 34.1%
MCV [5]: 65.4 fL
Mono [5]: 6%
Neu [5]: 23.6%
PT [5]: 12.4 s
Plat [5]: 109.9 x10_4/uL
RBC [5]: 582.6 x10_4/ul
Ret [5]: 11.4%
WBC [5]: 70.5 x10_2/uL
KIDNEY_L [5]: 0.9 g
KIDNEY_R [5]: 0.9 g
KIDNEY_TOTAL [5]: 1.8 g
LIVER [5]: 8.9 g
ALP [5]: 841.8 IU/L
ALT [5]: 35.8 IU/L
AST [5]: 62.8 IU/L
BUN [5]: 21.4 mg/dL
CRE [5]: 0.6 mg/dL
Ca [5]: 10.7 mg/dL
Cl [5]: 102.8 meq/L
DBIL [5]: 0.046 mg/dL
GLC [5]: 313.4 mg/dL
IP [5]: 9.9 mg/dL
K [5]: 4.9 meq/L
LDH [5]: 88.4 IU/L
Na [5]: 138 meq/L
PL [5]: 137.4 mg/dL
RALB [5]: 3.8 g/dL
TBIL [5]: 0.4 mg/dL
TC [5]: 81.2 mg/dL
TG [5]: 49.6 mg/dL
TP [5]: 5.1 g/dL
gamma-GTP [5]: 1 IU/L
TERMINAL_BW [6]: 196.2 g
APTT [6]: 19.9 s
Bas [6]: 0%
Eos [6]: 0.8%
Fbg [6]: 207.8 mg/dL
Hb [6]: 13 g/dL
Ht [6]: 39%
Lym [6]: 68.4%
MCHC [6]: 33.2%
MCV [6]: 64.4 fL
Mono [6]: 2.6%
Neu [6]: 28.6%
PT [6]: 12.5 s
Plat [6]: 110.2 x10_4/uL
RBC [6]: 605.8 x10_4/ul
Ret [6]: 9.2%
WBC [6]: 44 x10_2/uL
KIDNEY_L [6]: 0.8 g
KIDNEY_R [6]: 0.9 g
KIDNEY_TOTAL [6]: 1.7 g
LIVER [6]: 8.1 g
ALP [6]: 978 IU/L
ALT [6]: 30.6 IU/L
AST [6]: 61.6 IU/L
BUN [6]: 19.4 mg/dL
CRE [6]: 0.7 mg/dL
Ca [6]: 10.4 mg/dL
Cl [6]: 101.6 meq/L
DBIL [6]: 0.028 mg/dL
GLC [6]: 360 mg/dL
IP [6]: 10.7 mg/dL
K [6]: 4.5 meq/L
LDH [6]: 83.4 IU/L
Na [6]: 135.4 meq/L
PL [6]: 135 mg/dL
RALB [6]: 3.8 g/dL
TBIL [6]: 0.4 mg/dL
TC [6]: 80.4 mg/dL
TG [6]: 27 mg/dL
TP [6]: 5.3 g/dL
gamma-GTP [6]: 1 IU/L
TERMINAL_BW [7]: 192.8 g
APTT [7]: 19 s
Bas [7]: 0%
Eos [7]: 0%
Fbg [7]: 208.8 mg/dL
Hb [7]: 13.2 g/dL
Ht [7]: 39.2%
Lym [7]: 74.5%
MCHC [7]: 33.8%
MCV [7]: 65 fL
Mono [7]: 4.5%
Neu [7]: 20.8%
PT [7]: 12.8 s
Plat [7]: 108.6 x10_4/uL
RBC [7]: 603.2 x10_4/ul
Ret [7]: 10.1%
WBC [7]: 54.5 x10_2/uL
KIDNEY_L [7]: 0.8 g
KIDNEY_R [7]: 0.9 g
KIDNEY_TOTAL [7]: 1.7 g
LIVER [7]: 7.3 g
ALP [7]: 850.5 IU/L
ALT [7]: 26.8 IU/L
AST [7]: 59.8 IU/L
BUN [7]: 17.8 mg/dL
CRE [7]: 0.7 mg/dL
Ca [7]: 10.4 mg/dL
Cl [7]: 102.2 meq/L
DBIL [7]: 0.0125 mg/dL
GLC [7]: 323.5 mg/dL
IP [7]: 9.2 mg/dL
K [7]: 4.8 meq/L
LDH [7]: 121.2 IU/L
Na [7]: 133.5 meq/L
PL [7]: 128.2 mg/dL
RALB [7]: 4 g/dL
TBIL [7]: 0.4 mg/dL
TC [7]: 76.5 mg/dL
TG [7]: 14.2 mg/dL
TP [7]: 5.3 g/dL
gamma-GTP [7]: 1.8 IU/L
TERMINAL_BW [8]: 182.2 g
APTT [8]: 18.9 s
Bas [8]: 0%
Eos [8]: 1%
Fbg [8]: 187 mg/dL
Hb [8]: 13.7 g/dL
Ht [8]: 40.7%
Lym [8]: 61.2%
MCHC [8]: 33.7%
MCV [8]: 63.7 fL
Mono [8]: 9.8%
Neu [8]: 28.2%
PT [8]: 12.7 s
Plat [8]: 126.6 x10_4/uL
RBC [8]: 639.4 x10_4/ul
Ret [8]: 9.5%
WBC [8]: 117.8 x10_2/uL
KIDNEY_L [8]: 0.9 g
KIDNEY_R [8]: 0.9 g
KIDNEY_TOTAL [8]: 1.9 g
LIVER [8]: 8.1 g
ALP [8]: 783.2 IU/L
ALT [8]: 27.2 IU/L
AST [8]: 64.8 IU/L
BUN [8]: 22.8 mg/dL
CRE [8]: 0.8 mg/dL
Ca [8]: 9.9 mg/dL
Cl [8]: 108 meq/L
DBIL [8]: 0.032 mg/dL
GLC [8]: 209 mg/dL
IP [8]: 7.3 mg/dL
K [8]: 4.6 meq/L
LDH [8]: 99.6 IU/L
Na [8]: 139.6 meq/L
PL [8]: 110.4 mg/dL
RALB [8]: 3.9 g/dL
TBIL [8]: 0.4 mg/dL
TC [8]: 55.4 mg/dL
TG [8]: 41.2 mg/dL
TP [8]: 5.2 g/dL
gamma-GTP [8]: 1.8 IU/L

From ChEMBL document CHEMBL3885861, “Open TG-GATES”
